Test results from patent publication US8148373B2, “Compounds” (AstraZeneca AB, priority 2008, dated 2012).

Assays:
[1] = molecular target: T1, Adrenergic β2 (H292 cells) (Homo sapiens, UniProt P07550); experiment: Assay for Adrenergic β2 Mediated cAMP Production (concentration response, AlphaScreen cAMP detection); assay type: cell-based; conditions: for EC50: cAMP production, 60 minutes at room temperature, 300 μM rolipram, read-out: β2 pEC50 (converted); for β2 Intrinsic activity: fraction relative to the maximum activity determined for formoterol
T1 construct: endogenous in cells; host or cells: H292 cells
T1 sequence (P07550 whole entry): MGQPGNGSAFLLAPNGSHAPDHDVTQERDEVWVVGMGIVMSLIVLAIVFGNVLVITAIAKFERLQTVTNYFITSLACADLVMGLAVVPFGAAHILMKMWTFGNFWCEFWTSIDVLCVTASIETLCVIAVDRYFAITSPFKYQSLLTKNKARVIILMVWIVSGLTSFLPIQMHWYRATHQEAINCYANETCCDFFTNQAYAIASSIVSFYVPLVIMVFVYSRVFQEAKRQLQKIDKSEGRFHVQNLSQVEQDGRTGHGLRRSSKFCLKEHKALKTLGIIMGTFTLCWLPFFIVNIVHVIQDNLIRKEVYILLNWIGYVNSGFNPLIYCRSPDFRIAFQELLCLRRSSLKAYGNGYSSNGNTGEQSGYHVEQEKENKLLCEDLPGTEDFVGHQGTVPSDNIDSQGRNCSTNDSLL
Procedure, shortened: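 H292 cells plated overnight, pre-treated with rolipram (300 μM final) 10 min, then compound 60 min at room temperature in HBSS/10 mM HEPES pH7.4/5 mM glucose, 1% DMSO. Lysate cAMP read by AlphaScreen against a cAMP standard curve; 4-parameter fit gives pEC50 and intrinsic activity as fraction of formoterol maximum.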

[2] = molecular target: T2, human muscarinic acetylcholine M3 receptor (M3-ACh) (Homo sapiens, UniProt P20309); experiment: Muscarinic 3 Receptor Binding Assay ([3H]NMS competition, SPA); conditions: [3H]NMS 0.1 nM, CHO-K1 cell membranes, 16 hours at room temperature; read-out: M3 pIC50 (converted)
T2 construct: expressed in transfected cells; host or cells: CHO-K1 (Chinese Hamster Ovary) cell membranes
T2 sequence (P20309 whole entry): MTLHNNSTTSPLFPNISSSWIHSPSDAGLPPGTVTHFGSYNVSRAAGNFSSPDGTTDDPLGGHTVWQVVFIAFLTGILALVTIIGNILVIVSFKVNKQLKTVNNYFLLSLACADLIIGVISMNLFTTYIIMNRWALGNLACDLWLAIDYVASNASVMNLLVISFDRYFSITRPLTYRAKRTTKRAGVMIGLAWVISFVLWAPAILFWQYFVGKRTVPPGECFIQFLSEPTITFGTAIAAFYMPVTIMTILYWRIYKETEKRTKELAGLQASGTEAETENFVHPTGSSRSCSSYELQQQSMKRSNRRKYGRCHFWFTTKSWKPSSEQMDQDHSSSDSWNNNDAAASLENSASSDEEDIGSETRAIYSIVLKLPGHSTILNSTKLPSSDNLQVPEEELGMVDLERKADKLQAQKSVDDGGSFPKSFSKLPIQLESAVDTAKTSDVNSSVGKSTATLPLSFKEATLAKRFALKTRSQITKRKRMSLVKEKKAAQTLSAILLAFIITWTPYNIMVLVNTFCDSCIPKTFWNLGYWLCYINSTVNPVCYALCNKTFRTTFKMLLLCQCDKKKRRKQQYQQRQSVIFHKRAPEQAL
Procedure, shortened: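 Competition SPA binding of 0.1 nM [3H]NMS (quarter Kd) to membranes from CHO-K1 cells expressing human M3, in 20 mM HEPES pH 7.4, 5 mM MgCl2, 1% DMSO. Incubated 16 h at room temperature; non-specific binding with 1 µM atropine. pIC50 from 50% reduction of specific binding.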

[3] = molecular target: T1, Adrenergic β2 (H292 cells); experiment: Adrenergic β2 Mediated cAMP Production, single concentration 1 μM; assay type: cell-based; conditions: percentage of the maximum response generated by 1E-07M formoterol; for activation at 1 µM: NCI-H292, 1 μM compound, read-out: β2 (% effect at 1 μM); for β2 (% effect at 1 μM): 1 μM compound
Procedure, shortened: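 H292 cells were plated overnight, pre-treated with 300 μM rolipram for 10 min, then exposed to compound at 1 μM final (1% DMSO) for 60 min at room temperature. cAMP in the lysates was measured by AlphaScreen against a standard curve and expressed as % of the maximal response to 1E-07M formoterol.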

[4] = molecular target: T2, human muscarinic acetylcholine M3 receptor (M3-ACh); experiment: Muscarinic 3 Receptor Binding Assay, % inhibition specific binding at 1 μM; conditions: 1 μM compound, % inhibition specific [3H]-NMS binding
Procedure, shortened: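 Competition binding of 0.1 nM [3H]NMS to membranes from CHO-K1 cells expressing human M3, SPA format, with compound at 1 μM in 20 mM HEPES pH 7.4, 5 mM MgCl2, 1% DMSO. Incubated 16 h at room temperature; non-specific binding defined by 1 μM atropine; value is % inhibition of specific binding.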

SMILES	EC50 [1] [nM]	β2 Intrinsic activity [1]	IC50 [2] [nM]	activation at 1 µM [3] [%]	inhibition at 1 µM [4] [%]	β2 (% effect at 1 μM) [3] [%]	M3 (% inhibition at 1 μM) [4] [%]
Cc1ccc(C(=O)N2CCOC3(CCN(Cc4cc(F)cc(CCNC[C@H](O)c5ccc(O)c6[nH]c(=O)sc56)c4)CC3)C2)s1 [Example 118, (R)-7-(2-(3-fluoro-5-((4-(5-methylthiophene-2-carbonyl)-1-oxa-4,9-diazaspiro[5.5]undecan-9-yl)methyl)phenethylamino)-1-hydroxyethyl)-4-hydroxybenzo[d]thiazol-2(3H)-one]	6.31	1	20	101	95		
O=C(c1ccc(Cl)s1)N1CCOC2(CCN(Cc3cc(F)cc(CCNC[C@H](O)c4ccc(O)c5[nH]c(=O)sc45)c3)CC2)C1 [Example 124, (R)-7-(2-(3-((4-(5-chlorothiophene-2-carbonyl)-1-oxa-4,9-diazaspiro[5.5]undecan-9-yl)methyl)-5-fluorophenethylamino)-1-hydroxyethyl)-4-hydroxybenzo[d]thiazol-2(3H)-one]	3.98	0.9	12.6	100	97		
CC(C)(C)CC(=O)N1CCOC2(CCN(Cc3cc(F)cc(CCNC[C@H](O)c4ccc(O)c5[nH]c(=O)sc45)c3)CC2)C1 [Example 130, (R)-7-(2-(3-((4-(3,3-dimethylbutanoyl)-1-oxa-4,9-diazaspiro[5.5]undecan-9-yl)methyl)-5-fluorophenethylamino)-1-hydroxyethyl)-4-hydroxybenzo[d]thiazol-2(3H)-one]	12.6	1	79.4	109	90		
O=C(c1cccc2cc[nH]c12)N1CCOC2(CCN(Cc3cc(F)cc(CCNC[C@H](O)c4ccc(O)c5[nH]c(=O)sc45)c3)CC2)C1 [Example 141, (R)-7-(2-(3-((4-(1H-indole-7-carbonyl)-1-oxa-4,9-diazaspiro[5.5]undecan-9-yl)methyl)-5-fluorophenethylamino)-1-hydroxyethyl)-4-hydroxybenzo[d]thiazol-2(3H)-one]	6.31	0.9	25.1	105	91		
O=C(c1ccc2c(c1)CCO2)N1CCOC2(CCN(Cc3cc(F)cc(CCNC[C@H](O)c4ccc(O)c5[nH]c(=O)sc45)c3)CC2)C1 [Example 149, (R)-7-(2-(3-((4-(2,3-dihydrobenzofuran-5-carbonyl)-1-oxa-4,9-diazaspiro[5.5]undecan-9-yl)methyl)-5-fluorophenethylamino)-1-hydroxyethyl)-4-hydroxybenzo[d]thiazol-2(3H)-one]	7.94	0.9	25.1	113	92		
O=C(c1ccc2occc2c1)N1CCOC2(CCN(Cc3cc(F)cc(CCNC[C@H](O)c4ccc(O)c5[nH]c(=O)sc45)c3)CC2)C1 [Example 173, (R)-7-(2-(3-((4-(benzofuran-5-carbonyl)-1-oxa-4,9-diazaspiro[5.5]undecan-9-yl)methyl)-5-fluorophenethylamino)-1-hydroxyethyl)-4-hydroxybenzo[d]thiazol-2(3H)-one]	2.51	0.8	7.94	93	99		
O=C(c1ccc2cccnc2c1)N1CCOC2(CCN(Cc3cc(F)cc(CCNC[C@H](O)c4ccc(O)c5[nH]c(=O)sc45)c3)CC2)C1 [Example 178, (R)-7-(2-(3-fluoro-5-((4-(quinoline-7-carbonyl)-1-oxa-4,9-diazaspiro[5.5]undecan-9-yl)methyl)phenethylamino)-1-hydroxyethyl)-4-hydroxybenzo[d]thiazol-2(3H)-one]	5.01	0.8	31.6	94	89		
O=C(c1ccc(Cl)s1)N1CCOC2(CCN(CCCCCCCCCNC[C@H](O)c3ccc(O)c4[nH]c(=O)sc34)CC2)C1 [Example 190, (R)-7-(2-(9-(4-(5-chlorothiophene-2-carbonyl)-1-oxa-4,9-diazaspiro[5.5]undecan-9-yl)nonylamino)-1-hydroxyethyl)-4-hydroxybenzo[d]thiazol-2(3H)-one]	12.6	0.9	2	77	99		
Cc1ccc(C(=O)N2CCOC3(CCN(CCCCCCCCCNC[C@H](O)c4ccc(O)c5[nH]c(=O)sc45)CC3)C2)o1 [Example 198, (R)-4-hydroxy-7-(1-hydroxy-2-(9-(4-(5-methylfuran-2-carbonyl)-1-oxa-4,9-diazaspiro[5.5]undecan-9-yl)nonylamino)ethyl)benzo[d]thiazol-2(3H)-one]	12.6	0.8	3.16	82	99		
Cc1csc(C(=O)N2CCOC3(CCN(CCOc4ccc(CNC[C@H](O)c5ccc(O)c6[nH]c(=O)sc56)cc4)CC3)C2)c1 [Example 254, (R)-4-hydroxy-7-(1-hydroxy-2-(4-(2-(4-(4-methylthiophene-2-carbonyl)-1-oxa-4,9-diazaspiro[5.5]undecan-9-yl)ethoxy)benzylamino)ethyl) benzo[d]thiazol-2(3H)-one]				71	92		
CC(C)c1cc(C(=O)N2CCOC3(CCN(CCOc4ccc(CNC[C@H](O)c5ccc(O)c6[nH]c(=O)sc56)cc4)CC3)C2)no1 [Example 255, (R)-4-hydroxy-7-(1-hydroxy-2-(4-(2-(4-(5-isopropylisoxazole-3-carbonyl)-1-oxa-4,9-diazaspiro[5.5]undecan-9-yl)ethoxy)benzylamino)ethyl) benzo[d]thiazol-2(3H)-one]				66	32		
Cc1nc2cc(C(=O)N3CCOC4(CCN(CCOc5ccc(CNC[C@H](O)c6ccc(O)c7[nH]c(=O)sc67)cc5)CC4)C3)ccc2s1 [Example 256, (R)-4-hydroxy-7-(1-hydroxy-2-(4-(2-(4-(2-methylbenzo[d]thiazole-5-carbonyl)-1-oxa-4,9-diazaspiro[5.5]undecan-9-yl)ethoxy)benzylamino)ethyl) benzo[d]thiazol-2(3H)-one]				76	38		
CC(C)(C)c1nc(C(=O)N2CCOC3(CCN(CCOc4ccc(CNC[C@H](O)c5ccc(O)c6[nH]c(=O)sc56)cc4)CC3)C2)cs1 [Example 257, (R)-7-(2-(4-(2-(4-(2-tert-butylthiazole-4-carbonyl)-1-oxa-4,9-diazaspiro[5.5]undecan-9-yl)ethoxy)benzylamino)-1-hydroxyethyl)-4-hydroxy-benzo[d]thiazol-2(3H)-one]				56	36		
O=C(c1csc(C(F)(F)F)n1)N1CCOC2(CCN(CCOc3ccc(CNC[C@H](O)c4ccc(O)c5[nH]c(=O)sc45)cc3)CC2)C1 [Example 258]						55	96
CCCc1nc(C(=O)N2CCOC3(CCN(CCOc4ccc(CNC[C@H](O)c5ccc(O)c6[nH]c(=O)sc56)cc4)CC3)C2)cs1 [Example 260, (R)-4-hydroxy-7-(1-hydroxy-2-(4-(2-(4-(2-propylthiazole-4-carbonyl)-1-oxa-4,9-diazaspiro[5.5]undecan-9-yl)ethoxy)benzylamino)ethyl) benzo[d]thiazol-2(3H)-one]				56	93		
O=C(c1csc(C2CCC2)n1)N1CCOC2(CCN(CCOc3ccc(CNC[C@H](O)c4ccc(O)c5[nH]c(=O)sc45)cc3)CC2)C1 [Example 261, (R)-7-(2-(4-(2-(4-(2-cyclobutylthiazole-4-carbonyl)-1-oxa-4,9-diazaspiro[5.5]undecan-9-yl)ethoxy)benzylamino)-1-hydroxyethyl)-4-hydroxy-benzo[d]thiazol-2(3H)-one]				70	90		
O=C(c1csc(C2CCCC2)n1)N1CCOC2(CCN(CCOc3ccc(CNC[C@H](O)c4ccc(O)c5[nH]c(=O)sc45)cc3)CC2)C1 [Example 262, (R)-7-(2-(4-(2-(4-(2-cyclopentylthiazole-4-carbonyl)-1-oxa-4,9-diazaspiro[5.5]undecan-9-yl)ethoxy)benzylamino)-1-hydroxyethyl)-4-hydroxy-benzo[d]thiazol-2(3H)-one]				69	82		
Cc1cc(C(=O)N2CCOC3(CCN(CCOc4ccc(CNC[C@H](O)c5ccc(O)c6[nH]c(=O)sc56)cc4)CC3)C2)sc1C [Example 263]						74	37
